In patent publication US20090253629A1 (priority 2008, published 2009):
Values after ≈ are worked out from the molar mass of the structure shown. Values joined by “and” are separate entries in the source; they are usually repeats but may differ in a detail not shown here. Equal entries are not always repeated. Where two headings read alike, the source gives them in different places.

Tests used:
[1] = tested on: penicillin-resistant serotype 9V Streptococcus pneumoniae (1395); assay type: in vivo, New Zealand white rabbits; conditions: for reduction in bacterial burden in the cerebrospinal fluid (Δ log CFU), Average / reduction in bacterial burden in the cerebrospinal fluid (Δ log CFU): Ceftriaxon treatment; for reduction in bacterial burden in the cerebrospinal fluid (Δ log CFU), Average: average of rabbits 7-10; for reduction in bacterial burden in the cerebrospinal fluid (Δ log CFU): individual rabbits 7-10
Description: (§1) An Isolate of a penicillin-resistant serotype 9V Streptococcus pneumoniae (1395), originally isolated from the CSF of a person with meningitis, was used in the meningitis model. This strain was formerly used for evaluating the effectiveness of treatment of meningitis with Moxifloxacin (see Ostergaard et al., 1998, “Evaluation of moxifloxacin, a new 8-methoxyquinolone, for treatment of meningitis caused by a penicillin-resistant pneumococcus in rabbits”, Antimicrob Agents Chemother 42(7): 1706-1712).
The virulence of the strain was enhanced by passing the bacteria through a mouse peritonitis model. Bacteria from sampled peritoneal fluid were grown on blood agar plates, recovered and diluted in beef-broth with 10% glycerol added and frozen at −80° C.
The bacterial aliquots were thawn and grown on blood-agar plates, suspended in sterile beef-broth to reach an optical density of 3.5 at 540 nm, and subsequently diluted to obtain a final concentration of 1-2×10^6 CFU/ml.
Male New Zealand white rabbits weighing approx. 2500 g was used for the experiments. The rabbits arrived at the facilities 1-2 weeks prior to the experiment to allow for adaptation. They were kept in single cages covered with hay and offered food and water with no restrictions. Veterinarian expertise was available at the laboratory, and the experimental design was approved by the local animal legislation committee.
The rabbit was weighed and anaesthetized with dormicum 0.5 ml/kg (midazolam 5 mg/ml) s.c. and after 10 minutes with hypnorm 0.35 ml/kg (fentanylcitrat+fluanison) i.m.
The ears, scalp and neck of the rabbit were shaved and the skin disinfected. An incision measuring approx. 2 cm was made on the forehead of the rabbit and the scalp was exposed by blunt dissection. 4 bore holes were made demarcating a square and 4 screws were screwed up at right angles to the surface (2.5 to 3 turns). An acrylic helmet, embedding a turnbuckle, was moulded from dental casting material directly onto the scalp of the rabbit and the helmet was cooled under running water. The rabbit was put back into its cage with free access to food and water to rest for 8-10 hours until the time of bacterial inoculation or start of pharmacokinetic treatment study on uninfected rabbits. Analgesia with buprenorfin, 0.1 mg/kg, was given.
The head of the rabbit was immobilised in a stereotactic frame and a spinal canula was introduced in cisterna magna for the inoculation of 1×10^5 CFU pneumococci. After the bacterial inoculation, the rabbit was put back into its cage with access to food and water for another 8 hours.
The rabbit was re-anaesthetized with urethan 3.5 ml/kg ([…] 50%, 1.75 g/kg) s.c. at 7.30 a.m. A venous catheter was applied in the left ear-vein and Mebumal approx. 0.5-1 ml (Pentobarbital 50 mg/ml) i.v. was infused slowly until the rabbit was asleep and deeply anaesthetized. A three-way tap was connected to the venous catheter and syringes containing pentobarbital for supplemental anaesthetics and isotonic NaCl and heparin 1 Ul/ml for flushing were connected to the tap. Rabbits were observed every half hour. When the need for supplemental anaesthesia arose, additional 0.2 ml Mebumal (Pentobarbital 50 mg/ml) was given. During the experiment observations and anaesthetics were recorded in the scheme of the laboratory animal-department and in the book of the Laboratory Animal Inspection.
An arterial canula was applied in the artery of the right ear and used for blood-sampling throughout the experiment. A bolt was fastened to the turnbuckle embedded in the acrylic helmet, and the rabbit's head was fixed in a stereotactic frame. The rabbit remained fixed throughout the experiment.
Cisterna magna was punctured with a spinal-canula, fastened to the stereotactic frame. The canula was left in place throughout the experiment and used for CSF-sampling.

[2] = tested on: Streptococcus pneumoniae (1395); test: Minimum inhibitory concentration (MIC) against Streptococcus pneumoniae (1395); assay type: cell-based; conditions: penicillin-resistant serotype 9V, read-out: minimium inhibitory concentration (MIC)
Description: as §1
The synthetic defensin used in the experiment is a polypeptide having the amino acid sequence shown in SEQ ID NO: 1.

[3] = time 0 hours (normalized start)

In the case of `CO/N=C(\C(=O)N[C@@H]1C(=O)N2C(C(=O)O)=C(CSc3nc(=O)c(=O)[nH]n3C)CS[C@H]12)c1csc(N)n1` [Ceftriaxone], the “reduction in bacterial burden in the cerebrospinal fluid (Δ log CFU), Average” value (“reduction … (Δ log CFU), Average” for short) [1, 3] is reported as 0.00 Δ log CFU, the “reduction in bacterial burden in the cerebrospinal fluid (Δ log CFU)” value [1, 3] is reported as 0.00 Δ log CFU and the “bacterial burden in the cerebrospinal fluid” value ([1]; time 0 hours (start of treatment), Ceftriaxone 125 mg/kg at 0 h) is reported as 3,480,000 CFU/ml. The “reduction … (Δ log CFU), Average” value ([1]; time 3 hours) was −2.12 Δ log CFU, the “reduction in bacterial burden in the cerebrospinal fluid (Δ log CFU)” value ([1]; time 3 hours) was −2.26 Δ log CFU and −2.11 Δ log CFU and −2.53 Δ log CFU and −1.58 Δ log CFU and the “bacterial burden in the cerebrospinal fluid” value ([1]; time 3 hours, Ceftriaxone 125 mg/kg at 0 h) was 92,500 CFU/ml. The “reduction … (Δ log CFU), Average” value ([1]; time 5 hours) was −2.98 Δ log CFU, the “reduction in bacterial burden in the cerebrospinal fluid (Δ log CFU)” value ([1]; time 5 hours) was −3.28 Δ log CFU and −2.77 Δ log CFU and −3.72 Δ log CFU and −2.14 Δ log CFU and the “bacterial burden in the cerebrospinal fluid” value ([1]; time 5 hours, Ceftriaxone 125 mg/kg at 0 h) was 25,000 CFU/ml. The “reduction … (Δ log CFU), Average” value ([1]; time 10 hours) was −4.18 Δ log CFU, the “reduction in bacterial burden in the cerebrospinal fluid (Δ log CFU)” value ([1]; time 10 hours) was −5.16 Δ log CFU and −3.57 Δ log CFU and −4.32 Δ log CFU and −3.67 Δ log CFU and the “bacterial burden in the cerebrospinal fluid” value ([1]; time 10 hours, Ceftriaxone 125 mg/kg at 0 h) was 750 CFU/ml. For the same compound, the “bacterial burden in the cerebrospinal fluid” value ([1]; time −10 hours (before treatment), Ceftriaxone group) was 240,000 CFU/ml and the MIC [2] was 0.5 mg/L (≈ 0.902 µM).
